{"source": "patent US20240173333A1", "about": "“Treating Alagille Syndrome (ALGS)” (priority 2022, published 2024)", "key": {"[1]": {"test_system": "patients with Alagille syndrome (ALGS)", "assay": "Pooled ASSERT and ASSERT-EXT: serum bile acids, autotaxin, C4", "type": "in vivo, human", "description": "(§1) In the completed 24-week ASSERT study, patients with ALGS with history of significant pruritus and elevated serum BAs were randomized 2:1 to once-daily odevixibat 120 μg/kg or placebo, respectively. Patients who completed ASSERT could enter ASSERT-EXT, an ongoing, 72-week open-label extension study in which all patients receive odevixibat 120 μg/kg/day. This pooled analysis included all odevixibat-treated patients from ASSERT and/or ASSERT-EXT and spans from patients' first dose of odevixibat to a data cut-off of Sep. 9, 2022. Assessments over up to 36 weeks of treatment included change in observer-reported scratching scores and sleep parameters, as well as levels of serum BAs, autotaxin (a proposed meditator of pruritus), and 7 alpha-hydroxy-4-cholesten-3-one (C4; a marker of bile acid synthesis). Safety evaluations included assessment of alanine aminotransferase (ALT), total bilirubin, and treatment-emergent adverse events (TEAEs)."}, "[2]": {"test_system": "patients with Alagille syndrome (ALGS)", "assay": "Pooled ASSERT and ASSERT-EXT: observer-reported scratching scores", "type": "in vivo, human", "settings": "for mean scratching score: pooled", "description": "as §1"}, "[3]": {"test_system": "patients with Alagille syndrome (ALGS)", "assay": "ASSERT: ObsRO sleep parameters and daytime tiredness", "type": "in vivo, human", "source_text": "[…] Additional secondary efficacy endpoints were as follows: • Change from baseline in pruritus to Month 6 (Weeks 21 to 24) as measured by the Albireo PRO instrument. • Percentage of patients achieving a clinically meaningful decrease in pruritus (pruritis responders) as measured by the ObsRO/PRO instruments. • Change from baseline through Week 24 in patient reported and observer reported itching and scratching severity scores, respectively, for the morning assessment and for the evening assessment; sleep parameters as measured with the Albireo ObsRO/PRO instruments (e.g., tiredness and number of awakenings); and PedsQL subdomain scores. • Assessment of Global Symptom Relief to from baseline to Weeks 4, 12, and 24 as measured by patient, caregiver, and clinician Global Impression of Symptoms GIS (PGIS, CaGIS, CGIS) items. • Change from baseline to Week 24 in xanthomatosis as assessed by the Clinician Xanthoma Scale; serum bile acid levels; serum ALT concentration; and serum AST concentration; gamma-glutamyl transferase concentration; total bilirubin concentration. • Change from baseline in biochemical markers and measures of bile acid synthesis (autotaxin, p-C4, only in patients >10 kg); and total cholesterol concentration.\nItching, Scratching, and Sleep Parameters. Itching, observed scratching, and sleep disturbance were recorded twice each day via eDiary. Patients and/or caregivers were instructed to complete the eDiary every day in the morning after the patient woke and in the evening just before the patient went to sleep throughout the study. The eDiary included ObsRO and PRO items. The PRO items assessed severity of itch, aspects of sleep disturbance (morning diary only), and tiredness. The ObsRO items assessed severity of observed scratching, aspects of observed sleep disturbance (morning diary only), and signs of tiredness (evening diary only). The ObsRO and PRO scratching and itch severity items used 0 to 4 response scales."}, "[4]": {"test_system": "patients with Alagille syndrome (ALGS)", "assay": "Pooled ASSERT and ASSERT-EXT: sleep parameters", "type": "in vivo, human", "description": "as §1"}, "[5]": {"test_system": "patients with Alagille syndrome (ALGS)", "assay": "ASSERT pruritus responders: ObsRO sleep parameters", "text": "(§2) Treatment with concomitant medications for pruritus was permitted provided the patient was on a stable dosage for ≥4 weeks prior to enrollment that was maintained throughout the study.\n(§3) Pruritus responders were defined as patients having a ≥1-point decrease in ObsRO scratching score from baseline to weeks 21-24)."}, "[6]": {"test_system": "patients with Alagille syndrome (ALGS)", "assay": "ASSERT pruritus responders: ObsRO scratching score", "text": "as §2, §3"}, "Solubility in water": {"assay": "Solubility in water", "type": "physicochemical", "settings": "pH 7, 37° C.", "source_text": "It is desirable that the use of organic solvents in the preparation of the formulation is avoided. In some embodiments, water is used as the solvent for the preparation of the formulation. […] Because of this low solubility in water, aqueous suspensions of odevixibat can contain larger agglomerates of odevixibat, which may lead to an uneven distribution of the active pharmaceutical ingredient on the cores, i.e., the cores may contain different amounts of odevixibat, which in turn impacts dose uniformity. Accordingly, in some embodiments, the aqueous suspension of odevixibat is homogeneous. In some embodiments, a homogeneous aqueous suspension of odevixibat is sprayed onto the cores."}, "[7]": {"test_system": "patients with Alagille syndrome (ALGS)", "assay": "Pooled ASSERT and ASSERT-EXT: TEAEs", "type": "in vivo, human", "description": "as §1"}, "[8]": {"settings": "weeks 21-24, caregiver-reported"}}, "note": "Marks after values point to notes of the source that are not given here.", "data": [{"smiles": "CCCCC1(CCCC)CN(c2ccccc2)c2cc(SC)c(OCC(=O)N[C@@H](C(=O)N[C@@H](CC)C(=O)O)c3ccc(O)cc3)cc2S(=O)(=O)N1", "note": "[odevixibat, 1,1-dioxo-3,3-dibutyl-5-phenyl-7-methylthio-8-(N-{(R)-α-[N-((S)-1-carboxypropyl)carbamoyl]-4-hydroxybenzyl}carbamoylmethoxy)-2,3,4,5-tetrahydro-1,2,5-benzothiadiazepine]", "values": [{"measurement": "mean BA level", "setting": "[1]; average of weeks 20 and 24", "result": 145, "unit": "µmol/L"}, {"measurement": "mean BA level", "setting": "[1]; baseline, before odevixibat", "result": 246, "unit": "µmol/L"}, {"measurement": "mean p-C4 levels following treatment", "setting": "[1]; up to 36 weeks", "result": "approached normal levels"}, {"measurement": "mean BA level", "setting": "[1]; week 4", "result": 116, "unit": "µmol/L"}, {"measurement": "mean BA level", "setting": "[1]; week 36", "result": 116, "unit": "µmol/L"}, {"measurement": "mean scratching score", "setting": "[2]; baseline, before odevixibat", "result": 2.6}, {"measurement": "patients with a pruritus response (≥1 point reduction from baseline in scratching score)", "setting": "[2]; last assessment on odevixibat, n=37/49", "result": 76, "unit": "%"}, {"measurement": "mean scratching score", "setting": "[2]; weeks 1-4, 120 μg/kg/day", "result": 1.7}, {"measurement": "mean scratching score", "setting": "[2]; weeks 21-24", "result": 1.0}, {"measurement": "mean scratching score", "setting": "[2]; weeks 33-36", "result": 0.6}, {"measurement": "mean reduction from baseline in daytime tiredness (5-point scale 0-4)", "setting": "[3]; baseline to weeks 21 to 24, caregiver-rated", "result": "−1.1"}, {"measurement": "LS mean change from baseline, percent of days sleeping with caregiver", "setting": "[3]; [8]", "result": "−35", "unit": "%"}, {"measurement": "LS mean change from baseline, percent of days with help falling asleep", "setting": "[3]; [8]", "result": "−43", "unit": "%"}, {"measurement": "LS mean change from baseline, percent of days with soothing", "setting": "[3]; [8]", "result": "−47", "unit": "%"}, {"measurement": "Days seeing blood due to scratching, Mean (SD) % of Days", "setting": "[4]; Baseline, n=50", "result": "35% (34%)"}, {"measurement": "Days sleeping with caregiver, Mean (SD) % of Days", "setting": "[4]; Baseline, n=50", "result": "43% (45%)"}, {"measurement": "Days with help falling asleep, Mean (SD) % of Days", "setting": "[4]; Baseline, n=50", "result": "57% (45%)"}, {"measurement": "Days with soothing, Mean (SD) % of Days", "setting": "[4]; Baseline, n=50", "result": "64% (43%)"}, {"measurement": "Days seeing blood due to scratching, Mean (SD) % of Days", "setting": "[4]; Weeks 33-36, n=21", "result": "5.7% (14%)"}, {"measurement": "Days sleeping with caregiver, Mean (SD) % of Days", "setting": "[4]; Weeks 33-36, n=21", "result": "10% (26%)"}, {"measurement": "Days with help falling asleep, Mean (SD) % of Days", "setting": "[4]; Weeks 33-36, n=21", "result": "10% (18%)"}, {"measurement": "Days with soothing, Mean (SD) % of Days", "setting": "[4]; Weeks 33-36, n=21", "result": "12% (25%)"}, {"measurement": "Days seeing blood due to scratching, Mean (95% CI) Change From Baseline to Week 33-36", "setting": "[4]; n=21", "result": "−30% (−42%, −17%)***"}, {"measurement": "Days sleeping with caregiver, Mean (95% CI) Change From Baseline to Week 33-36", "setting": "[4]; n=21", "result": "−44% (−64%, −24%)***"}, {"measurement": "Days with help falling asleep, Mean (95% CI) Change From Baseline to Week 33-36", "setting": "[4]; n=21", "result": "−60% (−78%, −43%)***"}, {"measurement": "Days with soothing, Mean (95% CI) Change From Baseline to Week 33-36", "setting": "[4]; n=21", "result": "−59% (−77%, −40%)***"}, {"measurement": "Days seeing blood due to scratching, Baseline Mean (SE)", "setting": "[5]; n=28", "result": "35 (6) %"}, {"measurement": "Days sleeping with caregiver, Baseline Mean (SE)", "setting": "[5]; n=28", "result": "40 (9) %"}, {"measurement": "Days with help falling asleep, Baseline Mean (SE)", "setting": "[5]; n=28", "result": "59 (8) %"}, {"measurement": "Days with soothing, Baseline Mean (SE)", "setting": "[5]; n=28", "result": "68 (8) %"}, {"measurement": "Daytime tiredness, Baseline Mean (SE)", "setting": "[5]; n=28, scale 0-4", "result": "2.2 (0.2)"}, {"measurement": "Days seeing blood due to scratching, Mean (SE) Change From Baseline", "setting": "[5]; to weeks 21-24", "result": "−30 (5) %"}, {"measurement": "Days sleeping with caregiver, Mean (SE) Change From Baseline", "setting": "[5]; to weeks 21-24", "result": "−34 (8) %"}, {"measurement": "Days with help falling asleep, Mean (SE) Change From Baseline", "setting": "[5]; to weeks 21-24", "result": "−44 (8) %"}, {"measurement": "Days with soothing, Mean (SE) Change From Baseline", "setting": "[5]; to weeks 21-24", "result": "−53 (8) %"}, {"measurement": "Days seeing blood due to scratching, Week 24 Mean (SE)", "setting": "[5]; weeks 21-24, n=27", "result": "5 (2) %"}, {"measurement": "Days sleeping with caregiver, Week 24 Mean (SE)", "setting": "[5]; weeks 21-24, n=27", "result": "8 (5) %"}, {"measurement": "Days with help falling asleep, Week 24 Mean (SE)", "setting": "[5]; weeks 21-24, n=27", "result": "15 (6) %"}, {"measurement": "Days with soothing, Week 24 Mean (SE)", "setting": "[5]; weeks 21-24, n=27", "result": "16 (5) %"}, {"measurement": "Daytime tiredness, Week 24 Mean (SE)", "setting": "[5]; weeks 21-24, n=28, scale 0-4", "result": "1.0 (0.2)"}, {"measurement": "Scratching score, Mean (SE) Change From Baseline", "setting": "[6]; baseline to weeks 21-24", "result": "−2.0 (0.1)"}, {"measurement": "Scratching score, Baseline Mean (SE)", "setting": "[6]; n=28", "result": "2.8 (0.1)"}, {"measurement": "Scratching score, Week 24 Mean (SE)", "setting": "[6]; weeks 21-24, n=28", "result": "0.9 (0.1)"}, {"measurement": "solubility", "setting": "Solubility in water", "result": "~30", "unit": "µg/mL"}, {"measurement": "TEAEs that led to study discontinuation", "setting": "[7]", "result": "No patient"}, {"measurement": "patients reporting drug-related diarrhea", "setting": "[7]; 6 of 52", "result": 12, "unit": "%"}, {"measurement": "patients reporting drug-related TEAEs", "setting": "[7]; 15 of 52", "result": 29, "unit": "%"}, {"measurement": "patients reporting TEAEs", "setting": "[7]; 43 of 52", "result": 83, "unit": "%"}, {"measurement": "Any TEAE", "setting": "[7]; n=52", "result": "43 (83) n (%)"}, {"measurement": "Drug-related TEAE: Abdominal pain", "setting": "[7]; n=52", "result": "2 (4) n (%)"}, {"measurement": "Drug-related TEAE: Abdominal pain upper", "setting": "[7]; n=52", "result": "2 (4) n (%)"}, {"measurement": "Drug-related TEAE: Diarrhea", "setting": "[7]; n=52", "result": "6 (12) n (%)"}, {"measurement": "Drug-related TEAE: Vomiting", "setting": "[7]; n=52", "result": "2 (4) n (%)"}, {"measurement": "Drug-related TEAEs", "setting": "[7]; n=52", "result": "15 (29) n (%)"}, {"measurement": "Drug-related serious TEAEs", "setting": "[7]; n=52", "result": "1 (2) n (%)"}, {"measurement": "Serious TEAEs", "setting": "[7]; n=52", "result": "6 (12) n (%)"}, {"measurement": "Severe TEAEs", "setting": "[7]; n=52", "result": "7 (14) n (%)"}, {"measurement": "tolerability", "setting": "[7]; up to 36 weeks", "result": "generally well tolerated"}]}]}
